In publication PMC11003494 (Journal of Enzyme Inhibition and Medicinal Chemistry, 2023):

Legend:
hCA XII = hCA XII (Homo sapiens, UniProt O43570); assay: Stopped-flow CA catalysed CO2 hydration inhibition assay, hCA XII; type: biochemical
hCA I = hCA I (Homo sapiens, UniProt P00915); assay: Stopped-flow CA catalysed CO2 hydration inhibition assay, hCA I; type: biochemical
hCA IX = hCA IX (Homo sapiens, UniProt Q16790); assay: biochemical
hCA II = hCA II (Homo sapiens, UniProt P00918); assay: Stopped-flow CA catalysed CO2 hydration inhibition assay, hCA II; type: biochemical

Sequence of hCA XII (O43570 30-289 limits assumed): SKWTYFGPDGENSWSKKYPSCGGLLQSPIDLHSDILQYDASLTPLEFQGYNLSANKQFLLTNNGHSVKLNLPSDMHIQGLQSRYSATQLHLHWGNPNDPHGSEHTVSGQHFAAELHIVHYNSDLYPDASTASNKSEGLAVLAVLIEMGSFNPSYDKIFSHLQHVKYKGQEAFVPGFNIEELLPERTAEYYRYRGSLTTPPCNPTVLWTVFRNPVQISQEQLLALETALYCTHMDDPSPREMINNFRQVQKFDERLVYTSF
Sequence of hCA I (P00915 whole entry): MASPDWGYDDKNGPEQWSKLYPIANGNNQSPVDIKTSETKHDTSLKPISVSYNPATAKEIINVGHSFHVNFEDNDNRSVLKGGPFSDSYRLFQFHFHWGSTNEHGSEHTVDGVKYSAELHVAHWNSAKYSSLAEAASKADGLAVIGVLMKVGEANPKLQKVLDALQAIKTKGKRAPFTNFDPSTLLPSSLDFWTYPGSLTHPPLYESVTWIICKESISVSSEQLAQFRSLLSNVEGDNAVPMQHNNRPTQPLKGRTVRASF

SMILES | Ki (hCA XII) [µM] | Ki (hCA I) [µM] | Ki (hCA IX) [µM] | Ki (hCA II) [µM]
COC(=O)Cc1c(C)c2ccc(OCC(=O)c3ccc(C)cc3)c(C)c2oc1=O [EMAC10163a, Methyl 2‐{4,8‐dimethyl‐7‐[2‐(4‐methylphenyl)‐2‐oxoethoxy]‐2‐oxo‐2H‐chromen‐3‐yl}acetate] | 2.52 | > 100 | 2.98 | > 100
COC(=O)Cc1c(C)c2ccc(OCC(=O)c3ccc(OC)cc3)c(C)c2oc1=O [EMAC10163b, Methyl 2-(7-(2-(4-methoxyphenyl)-2-oxoethoxy)-4,8-dimethyl-2-oxo-2H-chromen-3-yl)acetate] | 0.47 | > 100 | 0.53 | > 100
COC(=O)Cc1c(C)c2ccc(OCC(=O)c3ccc(Br)cc3)c(C)c2oc1=O [EMAC10163c, Methyl 2-(7-(2-(4-bromophenyl)-2-oxoethoxy)-4,8-dimethyl-2-oxo-2H-chromen-3-yl)acetate] | 5.43 | > 100 | 4.16 | > 100
COC(=O)Cc1c(C)c2ccc(OCC(=O)c3ccc(F)cc3)c(C)c2oc1=O [EMAC10163d, Methyl 2-(7-(2-(4-fluorophenyl)-2-oxoethoxy)-4,8-dimethyl-2-oxo-2H-chromen-3-yl)acetate] | 6.04 | > 100 | 2.39 | > 100
COC(=O)Cc1c(C)c2ccc(OCC(=O)c3ccc([N+](=O)[O-])cc3)c(C)c2oc1=O [EMAC10163e, Methyl 2-(4,8-dimethyl-7-(2-(4-nitrophenyl)-2-oxoethoxy)-2-oxo-2H-chromen-3-yl)acetate] | 7.84 | > 100 | 4.64 | > 100
COC(=O)Cc1c(C)c2ccc(OCC(=O)c3cccc([N+](=O)[O-])c3)c(C)c2oc1=O [EMAC10163f, Methyl 2-(4,8-dimethyl-7-(2-(3-nitrophenyl)-2-oxoethoxy)-2-oxo-2H-chromen-3-yl)acetate] | 7.82 | > 100 | > 100 | > 100
COC(=O)Cc1c(C)c2ccc(OCC(=O)c3ccc(-c4ccccc4)cc3)c(C)c2oc1=O [EMAC10163g, Methyl 2-(7-(2-([1,1′-biphenyl]-4-yl)-2-oxoethoxy)-4,8-dimethyl-2-oxo-2H-chromen-3-yl)acetate] | 8.88 | > 100 | > 100 | > 100
COC(=O)Cc1c(C)c2ccc(OCC(=O)c3ccc(F)cc3F)c(C)c2oc1=O [EMAC10163h, Methyl 2-(7-(2-(2,4-difluorophenyl)-2-oxoethoxy)-4,8-dimethyl-2-oxo-2H-chromen-3-yl)acetate] | 5.56 | > 100 | 4.51 | > 100
COC(=O)Cc1c(C)c2ccc(OCC(=O)c3ccccc3)c(C)c2oc1=O [EMAC10163i, Methyl 2-(4,8-dimethyl-2-oxo-7-(2-oxo-2-phenylethoxy)-2H-chromen-3-yl)acetate] | 5.25 | > 100 | > 100 | > 100
COC(=O)Cc1c(C)c2ccc(OCC(=O)c3ccc(Cl)cc3)c(C)c2oc1=O [EMAC10163j, Methyl 2-(7-(2-(4-chlorophenyl)-2-oxoethoxy)-4,8-dimethyl-2-oxo-2H-chromen-3-yl)acetate] | 2.41 | > 100 | > 100 | > 100
COC(=O)Cc1c(C)c2ccc(OCC(=O)c3cccc(OC)c3)c(C)c2oc1=O [EMAC10163k, Methyl 2-(7-(2-(3-methoxyphenyl)-2-oxoethoxy)-4,8-dimethyl-2-oxo-2H-chromen-3-yl)acetate] | 4.86 | > 100 | > 100 | > 100
Cc1c(CC(=O)O)c(=O)oc2c(C)c3occ(-c4ccc(F)cc4F)c3cc12 [EMAC10164h, 2-(3-(2,4-Difluorophenyl)-5,9-dimethyl-7-oxo-7H-furo[3,2-g]chromen-6-yl)acetic acid] | 6.37 | > 100 | 4.27 | > 100

Next, values leading:

Ki (hCA XII) [µM] | Ki (hCA I) [µM] | Ki (hCA IX) [µM] | Ki (hCA II) [µM] | SMILES
4.09 | > 100 | > 100 | > 100 | Cc1ccc(-c2coc3c(C)c4oc(=O)c(CC(=O)O)c(C)c4cc23)cc1 [EMAC10164a, 2-(5,9-Dimethyl-7-oxo-3-(p-tolyl)-7H-furo[3,2-g]chromen-6-yl)acetic acid]
4.59 | > 100 | > 100 | > 100 | COc1ccc(-c2coc3c(C)c4oc(=O)c(CC(=O)O)c(C)c4cc23)cc1 [EMAC10164b, 2-(3-(4-Methoxyphenyl)-5,9-dimethyl-7-oxo-7H-furo[3,2-g]chromen-6-yl)acetic acid]
4.44 | > 100 | > 100 | > 100 | Cc1c(CC(=O)O)c(=O)oc2c(C)c3occ(-c4ccc(Br)cc4)c3cc12 [EMAC10164c, 2-(3-(4-Bromophenyl)-5,9-dimethyl-7-oxo-7H-furo[3,2-g]chromen-6-yl)acetic acid]
0.8 | > 100 | 0.46 | > 100 | Cc1c(CC(=O)O)c(=O)oc2c(C)c3occ(-c4ccc(F)cc4)c3cc12 [EMAC10164d, 2-(3-(4-Fluorophenyl)-5,9-dimethyl-7-oxo-7H-furo[3,2-g]chromen-6-yl)acetic acid]
0.82 | > 100 | 0.71 | > 100 | Cc1c(CC(=O)O)c(=O)oc2c(C)c3occ(-c4ccc(-c5ccccc5)cc4)c3cc12 [EMAC10164g, 2-(3-([1,1′-Biphenyl]-4-yl)-5,9-dimethyl-7-oxo-7H-furo[3,2-g]chromen-6-yl)acetic acid]
3.38 | > 100 | 3.18 | > 100 | Cc1c(CC(=O)O)c(=O)oc2c(C)c3occ(-c4ccccc4)c3cc12 [EMAC10164i, 2-(5,9-Dimethyl-7-oxo-3-phenyl-7H-furo[3,2-g]chromen-6-yl)acetic acid]
7.86 | > 100 | 3.22 | > 100 | Cc1c(CC(=O)O)c(=O)oc2c(C)c3occ(-c4ccc(Cl)cc4)c3cc12 [EMAC10164j, 2-(3-(4-Chlorophenyl)-5,9-dimethyl-7-oxo-7H-furo[3,2-g]chromen-6-yl)acetic acid]
3.66 | > 100 | 4.16 | > 100 | COc1cccc(-c2coc3c(C)c4oc(=O)c(CC(=O)O)c(C)c4cc23)c1 [EMAC10164k, 2-(3-(3-Methoxyphenyl)-5,9-dimethyl-7-oxo-7H-furo[3,2-g]chromen-6-yl)acetic acid]
